The molecules below were run on Influenza type B (cell culture adapted strain B/Lee/40, ATCC VR-1535) (assay: Influenza antiviral assay: inhibition of virus-induced cytopathic effects (CPE) in MDCK cells, XTT dye reduction). Conditions: Influenza B virus, MDCK, 96 h, strain B/Lee/40, MDCK cells, CPE inhibition at 4 days.
Type: cell-based
`CN1CN(C23c4ccccc4CC2Cc2ccccc23)n2ccc(=O)c(O)c2C1=O` (stereo not drawn) [Compound A1, 1-(9a, 10-dihydroindeno[1,2-a]inden-4b(9H)-yl)-5-hydroxy-3-methyl-2,3-dihydro-1H-pyrido[2,1-f][1,2,4]triazine-4,6-dione] showed an EC50 of 250 to 375 nM.
`O=C1c2c(O)c(=O)ccn2N(C23c4ccccc4CC2Cc2ccccc23)CN1CC1CC1` (stereo not drawn) [Compound A2, 3-Cyclopropylmethyl-1-(9a,10-dihydro-9H-indeno[1,2-a]inden-4b-yl)-5-hydroxy-2,3-dihydro-1H-pyrido[2,1-f][1,2,4]triazine-4,6-dione] gave an EC50 greater than 500 nM.
`CN1CN(C23c4ccc(F)cc4CC2Cc2cc(F)ccc23)n2ccc(=O)c(O)c2C1=O` (stereo not drawn) [Compound A3, 1-(2,7-Difluoro-9a,10-dihydro-9H-indeno[1,2-a]inden-4b-yl)-5-hydroxy-3-methyl-2,3-dihydro-1H-pyrido[2,1-f][1,2,4]triazine-4,6-dione] was tested, and the EC50 was greater than 500 nM.
In the case of `O=C1c2c(O)c(=O)ccn2N(C23c4ccccc4CC2Cc2ccccc23)CN1Cc1ccccc1` (stereo not drawn) [Compound A4, 3-Benzyl-1-(9a,10-dihydro-9H-indeno[1,2-a]inden-4b-yl)-5-hydroxy-2,3-dihydro-1H-pyrido[2,1-f][1,2,4]triazine-4,6-dione], the EC50 is reported as greater than 500 nM.
`O=C1c2c(O)c(=O)ccn2N(C23c4ccccc4CC2Cc2ccccc23)CN1CCOc1ccccc1` (stereo not drawn) [Compound A7, 1-(9a,10-Dihydro-9H-indeno[1,2-a]inden-4b-yl)-5-hydroxy-3-(2-phenoxy-ethyl)-2,3-dihydro-1H-pyrido[2,1-t][1,2,4]triazine-4,6-dione] gave an EC50 of less than 125 nM.
`CN1CN(C23c4cc(F)c(F)cc4CC2Cc2cc(F)c(F)cc23)n2ccc(=O)c(O)c2C1=O` (stereo not drawn) [Compound A8, 5-Hydroxy-3-methyl-1-(2,3,6,7-tetrafluoro-9a,10-dihydro-9H-indeno[1,2-a]inden-4b-yl)-2,3-dihydro-1H-pyrido[2,1-f][1,2,4]triazine-4,6-dione] showed an EC50 greater than 500 nM.
`O=C1c2c(O)c(=O)ccn2N(C23c4ccccc4CC2Cc2c3ccc(F)c2F)CN1CC1CC1` (stereo not drawn) [Compound A9, 3-Cyclopropylmethyl-1-(1,2-difluoro-9a,10-dihydro-9H-indeno[1,2-a]inden-4b-yl)-5-hydroxy-2,3-dihydro-1H-pyrido[2,1-f][1,2,4]triazine-4,6-dione] gave an EC50 of 125 to 250 nM.
For `CCN1CN(C23c4ccccc4CC2Cc2cc(F)c(F)cc23)n2ccc(=O)c(O)c2C1=O` (stereo not drawn) [Compound A10, 1-(2,3-Difluoro-9a,10-dihydro-9H-indeno[1,2-a]inden-4b-yl)-3-ethyl-5-hydroxy-2,3-dihydro-1H-pyrido[2,1-f][1,2,4]triazine-4,6-dione], the EC50 was greater than 500 nM.
`O=C1c2c(O)c(=O)ccn2N(C23c4ccccc4CC2Cc2c3ccc(F)c2F)CN1Cc1ccccc1` (stereo not drawn) [Compound A11, 3-Benzyl-1-(1,2-difluoro-9a,10-dihydro-9H-indeno[1,2-a]inden-4b-yl)-5-hydroxy-2,3-dihydro-1H-pyrido[2,1-t][1,2,4]triazine-4,6-dione] was tested, and the EC50 was 375 to 500 nM.
`CN1CN(C23c4cccc(F)c4CC2Cc2c(F)cccc23)n2ccc(=O)c(O)c2C1=O` (stereo not drawn) [Compound A12, 1-(1,8-Difluoro-9a,10-dihydro-9H-indeno[1,2-a]inden-4b-yl)-5-hydroxy-3-methyl-2,3-dihydro-1H-pyrido[2,1-f][1,2,4]triazine-4,6-dione] gave an EC50 greater than 500 nM.
`O=C1c2c(O)c(=O)ccn2N(C23c4ccccc4CC2Cc2cc(F)c(F)cc23)CN1CC1CC1` (stereo not drawn) [Compound A13, 3-Cyclopropylmethyl-1-(2,3-difluoro-9a,10-dihydro-9H-indeno[1,2-a]inden-4b-yl)-5-hydroxy-2,3-dihydro-1H-pyrido[2,1-f][1,2,4]triazine-4,6-dione] gave an EC50 of less than 125 nM.
`CCN1CN(C23c4ccccc4CC2Cc2c3ccc(F)c2F)n2ccc(=O)c(O)c2C1=O` (stereo not drawn) [Compound A14, 1-(1,2-Difluoro-9a,10-dihydro-9H-indeno[1,2-a]inden-4b-yl)-3-ethyl-5-hydroxy-2,3-dihydro-1H-pyrido[2,1-f][1,2,4]triazine-4,6-dione] gave an EC50 of 125 to 250 nM.
Work on `O=C1c2c(O)c(=O)ccn2N(C23c4ccccc4CC2Cc2c3ccc(F)c2F)CN1CC1CCOCC1` (stereo not drawn) [Compound A15, 1-(1,2-Difluoro-9a,10-dihydro-9H-indeno[1,2-a]inden-4b-yl)-5-hydroxy-3-(tetrahydro-pyran-4-ylmethyl)-2,3-dihydro-1H-pyrido[2,1-f][1,2,4]triazine-4,6-dione] yielded an EC50 of less than 125 nM.
For `O=C1c2c(O)c(=O)ccn2N(C23c4ccccc4CC2Cc2cc(F)c(F)cc23)CN1CC1CCOCC1` (stereo not drawn) [Compound A16, 1-(2,3-Difluoro-9a,10-dihydro-9H-indeno[1,2-a]inden-4b-yl)-5-hydroxy-3-(tetrahydro-pyran-4-ylmethyl)-2,3-dihydro-1H-pyrido[2,1-f][1,2,4]triazine-4,6-dione], the EC50 was less than 125 nM.
`O=C1c2c(O)c(=O)ccn2N(C23c4ccccc4CC2Cc2c3ccc(F)c2F)CN1Cc1ccc(F)cc1` (stereo not drawn) [Compound A17, 1-(1,2-Difluoro-9a,10-dihydro-9H-indeno[1,2-a]inden-4b-yl)-3-(4-fluoro-benzyl)-5-hydroxy-2,3-dihydro-1H-pyrido[2,1-f][1,2,4]triazine-4,6-dione] gave an EC50 of 125 to 250 nM.
In the case of `CN1CN(C23c4ccccc4CC2Cc2cc(F)c(F)cc23)n2ccc(=O)c(O)c2C1=O` (stereo not drawn) [Compound A19, 1-(2,3-difluoro-9a,10-dihydroindeno[1,2-a]inden-4b(9H)-yl)-5-hydroxy-3-methyl-2,3-dihydro-1H-pyrido[2,1-f][1,2,4]triazine-4,6-dione], the EC50 is reported as 250 to 375 nM.
In the case of `O=C1c2c(O)c(=O)ccn2N(C23c4ccccc4CC2Cc2cc(F)c(F)cc23)CN1Cc1ccccc1` (stereo not drawn) [Compound A21, 3-benzyl-1-(2,3-difluoro-9a,10-dihydroindeno[1,2-a]inden-4b(9H)-yl)-5-hydroxy-2,3-dihydro-1H-pyrido[2,1-f][1,2,4]triazine-4,6-dione], the EC50 is reported as less than 125 nM.
Work on `O=C1c2c(O)c(=O)ccn2N(C23c4ccccc4CC2Cc2cc(F)c(F)cc23)CN1CCc1ccccc1` (stereo not drawn) [Compound A22, 1-(2,3-difluoro-9a,10-dihydroindeno[1,2-a]inden-4b(9H)-yl)-5-hydroxy-3-phenethyl-2,3-dihydro-1H-pyrido[2,1-f][1,2,4]triazine-4,6-dione] yielded an EC50 of less than 125 nM.
With `O=C1c2c(O)c(=O)ccn2N(C23c4ccccc4CC2Cc2cc(F)c(F)cc23)CN1Cc1ccc(F)cc1` (stereo not drawn) [Compound A23, 1-(2,3-Difluoro-9a,10-dihydro-9H-indeno[1,2-a]inden-4b-yl)-3-(4-fluoro-benzyl)-5-hydroxy-2,3-dihydro-1H-pyrido[2,1-f][1,2,4]triazine-4,6-dione] the EC50 was 250 to 375 nM.
With `O=C1c2c(O)c(=O)ccn2N(C23c4ccccc4CC2Cc2cc(F)c(F)cc23)CN1Cc1cccc(F)c1` (stereo not drawn) [Compound A24, 1-(2,3-difluoro-9a,10-dihydroindeno[1,2-a]inden-4b(9H)-yl)-3-(3-fluorobenzyl)-5-hydroxy-2,3-dihydro-1H-pyrido[2,1-f][1,2,4]triazine-4,6-dione] the EC50 was 375 to 500 nM.
In the case of `O=C1c2c(O)c(=O)ccn2N(C23c4ccccc4CC2Cc2c3ccc(F)c2F)CN1CCc1ccccc1` (stereo not drawn) [Compound A25, 1-(1,2-difluoro-9a,10-dihydroindeno[1,2-a]inden-4b(9H)-yl)-5-hydroxy-3-phenethyl-2,3-dihydro-1H-pyrido[2,1-f][1,2,4]triazine-4,6-dione], the EC50 is reported as 375 to 500 nM.

From US12037333B2, “Pyridopyrazine and pyridotriazine inhibitors of influenza virus replication” (priority 2018, dated 2024)
